Results reported in US8314150B2, “Kinase protein binding inhibitors” (priority 2008, dated 2012).

Columns and labels:
[1] = test system: BT474, T47D, MCF-7 breast cancer, HT29 colon cancer, C8161 melanoma, A549 lung cancer cell lines; experiment: MTT cell viability screen of 36 compounds in 6 cancer cell lines; assay type: cell-based; details: 100 μM, 24 hours, among 36 compounds
Experimental: (§1) Cell Viability Assay—The Cells were treated with peptides for 24 hours at different peptide concentrations. The 3-(4,5-dimethylthiazol-2-yl)-5-(3-carboxymethoxyphenyl)-2-(4-sulfophenyl)-2H-tetrazolium compound from Promega Viability kit (Madison, Ill.) was added, and the cells were incubated at 37° C. for 1-2 hours. The optical density on 96-plate was analyzed with a microplate reader at 490 nm to determine cell viability. In addition, cells were stained with trypan blue after 24 hours of treatment with Y15 and the percent of cells that stained positive were determined with a hemacytometer. […] Then 2% SDS was added to the dried plated and OD at 590 nm was measured for detecting cell adhesion. […] Protein concentrations were determined using a Bio-Rad Kit. The boiled samples were loaded on Ready SDS-10% PAGE gels (Bio Rad, Inc) and used for Western blot analysis with the protein-specific antibody. […] Detachment Assay—Cells were plated with and without inhibitors for 24 hours, and detached and attached cells were counted in a hemocytometer. We calculated the percent of detachment by dividing the number of detached cells by the total number of cells. The percent of detached cells was calculated in three independent experiments. […] For each experiment 300 cells per treatment were counted. […]

[2] = test system: resistant breast cancer cells with overexpressed Src and activated FAK; experiment: Cell viability in resistant breast cancer cells; assay type: cell-based; details: not shown
Experimental: as §1

[3] = test system: VEGFR-3 phosphorylation; experiment: Phosphorylation of VEGFR-3 in cells; assay type: cell-based; details: not shown
Experimental: as §1

[4] = test system: c-Src phosphorylation; experiment: Phosphorylation of c-Src in cells; assay type: cell-based; details: not shown
Experimental: as §1

[5] = test system: total FAK phosphorylation; experiment: FAK immunoprecipitation and Western blotting with P-tyrosine antibody, BT474; assay type: cell-based; details: IP with FAK antibody
Experimental: as §1

[6] = test system: paxillin phosphorylation; experiment: Western blotting p-paxillin, Panc-1 cells; assay type: cell-based, human; details: 24 hours
Experimental: as §1

[7] = test system: BT474 cells; experiment: Cell adhesion assay on collagen-coated plates, BT474; assay type: cell-based
Experimental: as §1

[8] = test system: Y397 phosphorylation of FAK; experiment: Western blotting with Y397 antibody, time course in pancreatic tumor cells; assay type: cell-based, human; details: 100 μM
Experimental: as §1

[9] = test system: Miapaca-2 cells; experiment: Detachment assay, Miapaca-2; assay type: cell-based, human
Experimental: as §1

[10] = test system: normal human fibroblasts; experiment: Detachment and morphology, normal human fibroblasts; assay type: cell-based; details: doses up to 10 μM
Experimental: as §1

[11] = test system: Panc-1 tumor cells; experiment: Panc-1 subcutaneous tumor growth in nude mice; assay type: in vivo; details: 30 mg/kg each, daily intraperitoneal
Experimental: as §1

[12] = test system: FAK-Y397 phosphorylation; experiment: FAK-Y397 levels in Panc-1 tumors by Western blotting; assay type: in vivo, mice; details: 30 mg/kg, day 36, vs PBS
Experimental: as §1

[13] = test system: caspase-3; experiment: Caspase-3 immunohistochemistry of Panc-1 tumors; assay type: in vivo, mice; details: 30 mg/kg, no significant increase
Experimental: as §1

## Cl.Cl.Cl.Cl.Nc1cc(N)c(N)cc1N [Y15, 1,2,4,5-benzenetetraamine tetrahydrochloride]
[1]
  cell viability: maximally decreased cell viability
[2]
  cell viability: effectively blocked cell viability
[3]
  phosphorylation of VEGFR-3: did not inhibit
[4]
  phosphorylation of c-Src: did not inhibit
[5]
  total FAK phosphorylation (P-tyrosine): blocked total phosphorylation of FAK
[6]
  phosphorylation of FAK downstream substrate paxillin: blocked
[7]; 100 μM
  cell adhesion: significantly inhibited cell adhesion as TAE-226
[7]; collagen-coated plates
  dose from which cell adhesion was significantly decreased: 50 µM
[8]
  treatment time enough to completely block Y397-phosphorylation: 24 h
[8]; 6 hours or less
  Y397 phosphorylation after 6 hours or less: did not significantly decrease Y397 phosphorylation
[9]
  dose from which detachment was significant: 3 µM
[10]
  morphology and cell detachment: did not cause a significant change in morphology or increase in cell detachment
[11]
  tumor growth: inhibited tumor growth even better than gemcitabine alone
[12]
  Y397 phosphorylation in tumors: lower levels of Y397 phosphorylation
[13]
  apoptotic cells in tumors (caspase-3 staining): 6%
